Source: patent US11584763B2, “Chromenopyridine derivatives as phosphatidylinositol phosphate kinase inhibitors” (HIBERCELL, INC., priority 2017, dated 2023)

How the values were obtained:
PIP4K2B = target: T1, PIP4K2B (Homo sapiens, UniProt P78356); test: Trans-FI P kinase assay PIP4K2B (PIP4KtypeIIB inhibition assay); type: biochemical; conditions: compounds listed under IC50 bin headings; 100 uM GTP; read-out: Trans-FI P kinase assays: PIP4K2B IC50
T1 construct: made in house; host or cells: E. coli
T1 sequence (P78356 1-416): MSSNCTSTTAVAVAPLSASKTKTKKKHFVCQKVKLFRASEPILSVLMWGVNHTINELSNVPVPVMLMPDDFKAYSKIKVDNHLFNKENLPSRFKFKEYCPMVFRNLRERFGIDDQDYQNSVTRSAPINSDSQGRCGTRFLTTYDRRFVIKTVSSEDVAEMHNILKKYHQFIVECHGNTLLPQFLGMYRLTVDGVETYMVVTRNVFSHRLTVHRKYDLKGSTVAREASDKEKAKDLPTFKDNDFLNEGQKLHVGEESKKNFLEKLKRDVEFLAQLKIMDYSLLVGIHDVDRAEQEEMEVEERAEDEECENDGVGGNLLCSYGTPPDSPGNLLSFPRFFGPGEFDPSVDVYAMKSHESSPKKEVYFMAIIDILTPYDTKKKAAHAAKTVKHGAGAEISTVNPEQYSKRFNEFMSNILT
In short: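 Transcreener FI fluorescence read-out of GDP formed by E. coli-expressed GST-PIP4K2B (5 nM) using 100 uM GTP and 80 uM PI5P with DOPE carrier lipid, pH 7.3, 2 h reaction. Compounds (up to 4.8 uM) were preincubated with enzyme 1 h at 27 C; IC50 fitted from residual activity relative to no-inhibitor control.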

PIP4K 2A = target: T2, PIP4K 2A (Homo sapiens, UniProt P48426); test: ADP-glo kinase assay PIP4K 2A; type: biochemical; parameters: 4 nM PIP4K2A (full length protein, SignalChem); purchased SignalChem; conditions: compounds listed under IC50 bin headings
T2 sequence (P48426 1-406): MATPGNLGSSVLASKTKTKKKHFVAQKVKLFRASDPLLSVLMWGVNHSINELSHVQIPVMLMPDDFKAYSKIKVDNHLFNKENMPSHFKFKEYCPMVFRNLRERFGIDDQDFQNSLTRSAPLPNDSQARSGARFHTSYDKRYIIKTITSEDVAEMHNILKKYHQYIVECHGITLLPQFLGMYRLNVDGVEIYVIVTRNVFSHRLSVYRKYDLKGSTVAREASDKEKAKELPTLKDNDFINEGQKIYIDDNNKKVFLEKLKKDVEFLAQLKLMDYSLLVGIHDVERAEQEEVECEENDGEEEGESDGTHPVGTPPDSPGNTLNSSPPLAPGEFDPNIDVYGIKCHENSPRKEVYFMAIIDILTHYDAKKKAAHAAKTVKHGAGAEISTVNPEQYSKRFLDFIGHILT
In short: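 Inhibition was calculated versus DMSO controls from ADP-Glo luminescence and fitted to IC50 over a 10-point, threefold series. Compound was first pre-incubated 15 min at room temperature with PIP4K2A (full-length; 4 nM in the enzyme/substrate mix) and PI(5)P diC8 (100 μM in that mix). The reaction then ran for 1 h after adding 60 μM ATP solution, in MOPS pH 7.2/MgCl2/Tween buffer.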

In the case of `CC1Oc2cc(N3CCCC3=O)c(F)cc2-c2cnc(Nc3cnc4c(c3)N3C(=O)C5(CC5)C[C@H]3CO4)cc21` (stereo partly drawn) [Example 154, (6a′S)-2′-((9-fluoro-5-methyl-8-(2-oxopyrrolidin-1-yl)-5H-chromeno[4,3-c]pyridin-3-yl)amino)-6a′,7′-dihydro-6′H,9′H-spiro[cyclopropane-1,8′-pyrido[2,3-b]pyrrolo[1,2-d][1,4]oxazin]-9′-one], the IC50 (PIP4K2B) is reported as 0.001 to 0.01 µM and the IC50 (PIP4K 2A) is reported as no more than 0.001 µM.

`CC1C[C@H]2COc3ncc(Nc4cc5c(cn4)-c4ccc(N6CCCC6=O)cc4OC5C)cc3N2C1=O` (stereo partly drawn) [Example 155, (6aS)-8-methyl-2-((5-methyl-8-(2-oxopyrrolidin-1-yl)-5H-chromeno[4,3-c]pyridin-3-yl)amino)-6,6a,7,8-tetrahydro-9H-pyrido[2,3-b]pyrrolo[1,2-d][1,4]oxazin-9-one] gave an IC50 (PIP4K2B) of 0.001 to 0.01 µM and an IC50 (PIP4K 2A) of no more than 0.001 µM.

`CC1Oc2cc(N3CCCC3=O)ccc2-c2cnc(Nc3cnc4c(c3)N3C(=O)C(C)(C)C[C@H]3CO4)cc21` (stereo partly drawn) [Example 156, (6aS)-8,8-dimethyl-2-((5-methyl-8-(2-oxopyrrolidin-1-yl)-5H-chromeno[4,3-c]pyridin-3-yl)amino)-6,6a,7,8-tetrahydro-9H-pyrido[2,3-b]pyrrolo[1,2-d][1,4]oxazin-9-one] was tested, and the IC50 (PIP4K2B) was 0.001 to 0.01 µM and the IC50 (PIP4K 2A) was no more than 0.001 µM.

`CC1Oc2cc(N3CCCC3=O)ccc2-c2cnc(Nc3cnc4c(c3)N3C(=O)C5(CC5)C[C@H]3CO4)cc21` (stereo partly drawn) [Example 157, (6a′S)-2′-((5-methyl-8-(2-oxopyrrolidin-1-yl)-5H-chromeno[4,3-c]pyridin-3-yl)amino)-6a′,7′-dihydro-6′H,9′H-spiro[cyclopropane-1,8′-pyrido[2,3-b]pyrrolo[1,2-d][1,4]oxazin]-9′-one] showed an IC50 (PIP4K2B) of 0.001 to 0.01 µM and an IC50 (PIP4K 2A) of no more than 0.001 µM.

Molecule `CC1Oc2cc(N3CCCC3=O)ccc2-c2cnc(Nc3cnc4c(c3)N3C(=O)OC[C@H]3CO4)cc21` (stereo partly drawn) [Example 158, (3aR)-8-((5-methyl-8-(2-oxopyrrolidin-1-yl)-5H-chromeno[4,3-c]pyridin-3-yl)amino)-3a,4-dihydro-1H,3H-oxazolo[3,4-d]pyrido[2,3-b][1,4]oxazin-1-one] has an IC50 (PIP4K2B) of 0.001 to 0.01 µM and an IC50 (PIP4K 2A) of no more than 0.001 µM.

Work on `CC1Oc2cc(N3CCCC3=O)c(F)cc2-c2cnc(Nc3cnc4c(c3)N3C(=O)OC[C@H]3CO4)cc21` (stereo partly drawn) [Example 159, (3aR)-8-((9-fluoro-5-methyl-8-(2-oxopyrrolidin-1-yl)-5H-chromeno[4,3-c]pyridin-3-yl)amino)-3a,4-dihydro-1H,3H-oxazolo[3,4-d]pyrido[2,3-b][1,4]oxazin-1-one] yielded an IC50 (PIP4K2B) of 0.001 to 0.01 µM and an IC50 (PIP4K 2A) of no more than 0.001 µM.

With `O=C1CCCN1c1ccc2c(c1)OCc1cc(Nc3cncc(N4CCNC4=O)c3)ncc1-2` [Example 160, 1-(5-((8-(2-oxopyrrolidin-1-yl)-5H-chromeno[4,3-c]pyridin-3-yl)amino)pyridin-3-yl)imidazolidin-2-one] the IC50 (PIP4K2B) was 0.01 to 0.1 µM and the IC50 (PIP4K 2A) was 0.001 to 0.01 µM.

Molecule `O=C1NCCN1c1cncc(Nc2cc3c(cn2)-c2cc(F)c(N4CCCC4=O)cc2OC3)c1` [Example 161, 1-(5-((9-fluoro-8-(2-oxopyrrolidin-1-yl)-5H-chromeno[4,3-c]pyridin-3-yl)amino)pyridin-3-yl)imidazolidin-2-one] has an IC50 (PIP4K2B) of 0.01 to 0.1 µM and an IC50 (PIP4K 2A) of 0.001 to 0.01 µM.

`CC1(C)Oc2cc(N3CCCC3=O)ccc2-c2cnc(Nc3cncc(N4CCNC4=O)c3)cc21` [Example 162, 1-(5-((5,5-dimethyl-8-(2-oxopyrrolidin-1-yl)-5H-chromeno[4,3-c]pyridin-3-yl)amino)pyridin-3-yl)imidazolidin-2-one] was tested, and the IC50 (PIP4K2B) was 0.01 to 0.1 µM and the IC50 (PIP4K 2A) was 0.001 to 0.01 µM.

`O=C1CCCN1c1ccc2c(c1)OCc1cc(Nc3cnc4c(c3)OCCO4)ncc1-2` [Example 163, 1-(3-((2,3-dihydro-[1,4]dioxino[2,3-b]pyridin-7-yl)amino)-5H-chromeno[4,3-c]pyridin-8-yl)pyrrolidin-2-one] was tested, and the IC50 (PIP4K2B) was 0.01 to 0.1 µM and the IC50 (PIP4K 2A) was 0.001 to 0.01 µM.

Molecule `O=C1CCCN1c1cc2c(cc1F)-c1cnc(Nc3cnc4c(c3)OCCO4)cc1CO2` [Example 165, 1-(3-((2,3-dihydro-[1,4]dioxino[2,3-b]pyridin-7-yl)amino)-9-fluoro-5H-chromeno[4,3-c]pyridin-8-yl)pyrrolidin-2-one] has an IC50 (PIP4K2B) of 0.01 to 0.1 µM and an IC50 (PIP4K 2A) of 0.01 to 0.1 µM.

For `CC1Oc2cc(N3CCCC3=O)c(F)cc2-c2cnc(Nc3cnc4c(c3)OCCO4)cc21` (stereo not drawn) [Example 166, 1-(3-((2,3-dihydro-[1,4]dioxino[2,3-b]pyridin-7-yl)amino)-9-fluoro-5-methyl-5H-chromeno[4,3-c]pyridin-8-yl)pyrrolidin-2-one], the IC50 (PIP4K2B) was 0.01 to 0.1 µM and the IC50 (PIP4K 2A) was 0.001 to 0.01 µM.

Molecule `COCCC(=O)N1CCN(c2cncc(Nc3cc4c(cn3)-c3ccc(N5CCCC5=O)cc3OC4)c2)CC1` [Example 168, 1-(3-((5-(4-(3-methoxypropanoyl)piperazin-1-yl)pyridin-3-yl)amino)-5H-chromeno[4,3-c]pyridin-8-yl)pyrrolidin-2-one] has an IC50 (PIP4K2B) of 0.01 to 0.1 µM and an IC50 (PIP4K 2A) of 0.01 to 0.1 µM.

In the case of `COCCC(=O)N1CCN(c2cncc(Nc3cc4c(cn3)-c3ccc(N5CCCC5=O)cc3OC4C)c2)CC1` (stereo not drawn) [Example 169, 1-(3-((5-(4-(3-methoxypropanoyl)piperazin-1-yl)pyridin-3-yl)amino)-5-methyl-5H-chromeno[4,3-c]pyridin-8-yl)pyrrolidin-2-one], the IC50 (PIP4K2B) is reported as 0.01 to 0.1 µM and the IC50 (PIP4K 2A) is reported as 0.001 to 0.01 µM.

In the case of `COCCC(=O)N1CCN(c2cncc(Nc3cc4c(cn3)-c3cc(F)c(N5CCCC5=O)cc3OC4)c2)CC1` [Example 171, 1-(9-fluoro-3-((5-(4-(3-methoxypropanoyl)piperazin-1-yl)pyridin-3-yl)amino)-5H-chromeno[4,3-c]pyridin-8-yl)pyrrolidin-2-one], the IC50 (PIP4K2B) is reported as 0.01 to 0.1 µM and the IC50 (PIP4K 2A) is reported as 0.01 to 0.1 µM.

`COCCC(=O)N1CCN(c2cncc(Nc3cc4c(cn3)-c3cc(F)c(N5CCCC5=O)cc3OC4C)c2)CC1` (stereo not drawn) [Example 172, 1-(9-fluoro-3-((5-(4-(3-methoxypropanoyl)piperazin-1-yl)pyridin-3-yl)amino)-5-methyl-5H-chromeno[4,3-c]pyridin-8-yl)pyrrolidin-2-one] showed an IC50 (PIP4K2B) of 0.01 to 0.1 µM and an IC50 (PIP4K 2A) of 0.001 to 0.01 µM.

For `CC1Oc2cc(N3CCCC3=O)ccc2-c2cnc(Nc3cncc(NC(=O)c4ccc(NC(=O)/C=C/CN(C)C)cc4)c3)cc21` (stereo not drawn) [Example 174, (E)-4-(4-(dimethylamino)but-2-enamido)-N-(5-((5-methyl-8-(2-oxopyrrolidin-1-yl)-5H-chromeno[4,3-c]pyridin-3-yl)amino)pyridin-3-yl)benzamide], the IC50 (PIP4K2B) was 0.01 to 0.1 µM and the IC50 (PIP4K 2A) was 0.001 to 0.01 µM.

With `CC1Oc2cc(N3CCCC3=O)ccc2-c2cnc(Nc3cncc(NC(=O)CCc4cccc(NC(=O)/C=C/CN(C)C)c4)c3)cc21` (stereo not drawn) [Example 176, (E)-4-(dimethylamino)-N-(3-(3-((5-((5-methyl-8-(2-oxopyrrolidin-1-yl)-5H-chromeno[4,3-c]pyridin-3-yl)amino)pyridin-3-yl)amino)-3-oxopropyl)phenyl)but-2-enamide] the IC50 (PIP4K2B) was 0.01 to 0.1 µM and the IC50 (PIP4K 2A) was 0.001 to 0.01 µM.

`CC1Oc2cc(N3CCCC3=O)ccc2-c2cnc(Nc3cncc(NC(=O)CCc4cccc(NC(=O)CCCN(C)C)c4)c3)cc21` (stereo not drawn) [Example 177, 4-(dimethylamino)-N-(3-(3-((5-((5-methyl-8-(2-oxopyrrolidin-1-yl)-5H-chromeno[4,3-c]pyridin-3-yl)amino)pyridin-3-yl)amino)-3-oxopropyl)phenyl)butanamide] showed an IC50 (PIP4K2B) of 0.001 to 0.01 µM and an IC50 (PIP4K 2A) of 0.001 to 0.01 µM.

`CC1Oc2cc(N3CCCC3=O)ccc2-c2cnc(Nc3cncc(N4CCN(Cc5cccc(NC(=O)CNC(=O)/C=C/CN(C)C)c5)C4=O)c3)cc21` (stereo not drawn) [Example 178, (E)-4-(dimethylamino)-N-(2-((3-((3-(5-((5-methyl-8-(2-oxopyrrolidin-1-yl)-5H-chromeno[4,3-c]pyridin-3-yl)amino)pyridin-3-yl)-2-oxoimidazolidin-1-yl)methyl)phenyl)amino)-2-oxoethyl)but-2-enamide] was tested, and the IC50 (PIP4K2B) was 0.001 to 0.01 µM and the IC50 (PIP4K 2A) was no more than 0.001 µM.

Work on `CC1Oc2cc(N3CCCC3=O)ccc2-c2cnc(Nc3cnc4c(c3)N3C(=O)CC[C@@H]3CO4)cc21` (stereo partly drawn) [Example 180, (6aR)-2-((5-methyl-8-(2-oxopyrrolidin-1-yl)-5H-chromeno[4,3-c]pyridin-3-yl)amino)-6,6a,7,8-tetrahydro-9H-pyrido[2,3-b]pyrrolo[1,2-d][1,4]oxazin-9-one] yielded an IC50 (PIP4K2B) of 0.001 to 0.01 µM and an IC50 (PIP4K 2A) of no more than 0.001 µM.
